# From patent US20250114354A1, “COMBINATION TREATMENT REGIMENS - SMARCA2 DEGRADER WITH PD-1 INHIBITORS” (PRELUDE THERAPEUTICS INCORPORATED, priority 2023, published 2025)
# “Also recorded” adds a separate entry of the source.
# Legend:
# [1] = test system: IFN-gamma, IL-2 and Granzyme B in co-culture of NCI-H1299 cells and human PBMCs; test: Cytokine analysis (MSD U-PLEX) of co-culture supernatant; format: cell-based; conditions: Formula (I) combined with Pembrolizumab; conditioned media; FIG. 1B
# Experimental: Supernatant from the co-culture were plated into a 96-well plate and cytokines were analyzed using the MSD U-PLEX Immuno-Oncology Group 1 (Human) kit (MesoScale Discovery, Custom-made kit). Expressions of IFN-gamma, IL-2 and Granzyme B are shown.
# (§1) H1299 (CRL-5803) and H1975 (CRL-5908) were purchased from the American […]. Human Mononuclear Cells (PBMC) (HUMANPBMC-0001989) were purchased from BioIVT. NCI-H1299, NCI-H1975 and all CT26 cells were cultured in RPMI-1640 (ATCC, 30-2001) supplemented with 10% FBS (Gibco, 26140-079) and 1× penicillin-streptomycin (Thermofisher, 15140122). Human Peripheral Bloogd Mononuclear Cells (PBMCs) were cultured in RPMI-1640, 20% FBS, 100U/ml Human Recombinant IL-2 (Gibco, PHC0027) and 1× penicillin-streptomycin. All cells were maintained at 37° C. in 5% CO2 in a humidified incubator.
# Supernatant from the co-culture were plated into a 96-well plate and cytokines were analyzed using the MSD U-PLEX Immuno-Oncology Group 1 (Human) kit (MesoScale Discovery, Custom-made kit).
# [2] = test system: SMARCA4 WT NCI-H1975 cells; test: Incucyte 3D tumor spheroid growth, NCI-H1975 cells with human PBMCs; format: cell-based; conditions: Formula (I) 100 nM with pembrolizumab 100 ug/ml; FIG. 2C
# Experimental: (§2) The cells were treated with or without Formula (I) and/or pembrolizumab. The data were generated with SMARCA4 deleted NCI-H1299 and SMARCA4 WT NCI-H1975 cells.
# (§3) GFP-tagged tumor cells were seeded in 96 well Ultra-Low Adherence (ULA) plates (Corning, 7007) (2000 cells/well) and centrifuged briefly (300 g, 30 seconds) to induce cell aggregation. The cells were incubated at 37° C. overnight to allow complete aggregation into spheroids. Following the addition of immune cells with treatment of Pembrolizumab (MedChemExpress, HY-P9902) (100 ug/ml) and/or Formula (I) (100 nM). Three-dimensional tumor spheroid growth was monitored using Sartorius' Incucyte® SX1 Live-Cell Analysis.
# (§4) H1299 and H1975 cells were seeded (500,000 cells/well) in 6 well Tissue Culture Treated plates (Corning 3516) and allowed to aggregate into tumor spheroids for 1-2 hours. Tumor spheroids were treated with 600 ul of Incucyte® Cytolight Lentivirus (Sartorius, 4481) for a MOI of 3 and 8 ug/ml Polybrene Transfection Reagent (Sigma-Aldrich, TR-1003). The cells were incubated at 37° C. overnight. Following incubation, media was removed and replaced with fresh media. GFP expression was monitored using Sartorius' Incucyte® SX1 Live-Cell Analysis System (9600-0031).
# [3] = test system: SMARCA4 deleted NCI-H1299 cells; test: Incucyte 3D tumor spheroid growth, NCI-H1299 cells with human PBMCs; format: cell-based; conditions: Formula (I) 100 nM with pembrolizumab 100 ug/ml; FIG. 2C
# Experimental: as §2, §3, §4
# [4] = test system: T cells (human PBMCs co-cultured with SMARCA4 deleted NCI-H1299 cells); test: Flow cytometry of T cell activation markers in co-culture of NCI-H1299 cells and human PBMCs; format: cell-based; conditions: Formula (I) combined with Pembrolizumab, FIG. 1A
# Text: Human peripheral blood mononuclear cells (PBMCs) were co-cultured with NCI-H1299 cells (SMARCA4 deleted NSCLC) with Pembrolizumab and/or Formula (I). The cell samples from co-culture were stained for CD3 (T cell marker), CD8 (T cell marker), and CD25 (T cell activation marker) and analyzed by flow cytometry to determine percentages of cells with marker positive populations.
# as §1
# Samples from co-culture were collected in Eppendorf tubes and 500 ul of PBS was added. The samples were centrifuged (300 g, 5 minutes) to wash. Supernatant was removed and the pellet was resuspended in 200 ul FACS buffer. Samples were placed on ice for 15 minutes to block. After blocking, the samples were centrifuged (300 g, 5 minutes). […]
# [5] = test system: SMARCA4 deleted A549 cells; test: Incucyte 3D tumor spheroid growth, A549 cells with HLA-matched T cells; format: cell-based, human
# Experimental: Green fluorescence protein (GFP) positive A549 cells were cultured with or without HLA-matched T cells and treated with Formula (I) in the spheroid culture system. Representative figures of the 3D cancer cell spheroids were shown.
# The data were generated with SMARCA4 deleted A549 cells.
# as §3
smiles,measurement,setting,value
Cc1ncsc1-c1ccc([C@H](C)NC(=O)[C@@H]2C[C@@H](O)CN2C(=O)[C@@H](c2cc(O[C@@H](C)CN3CC[C@@H](N4CCN5c6cc(-c7ccccc7O)nnc6NC[C@H]5C4)C3)no2)C(C)C)cc1 [Formula (I)],Gramzyme B level in co-culture supernatant,[1],higher levels
same,IFN-g level in co-culture supernatant,[1],higher levels
same,IL-2 level in co-culture supernatant,[1],higher levels
same,combination effect on NCI-H1975 spheroids cultured with PBMCs,[2],the combination effect was not seen
same,"combination effect on NCI-H1299 spheroids cultured with PBMCs, compared to single agent treated groups",[3],showed more
same,activated (CD25+) CD3+ T cells,[4],increased
same,activated (CD25+) CD8+ T cells,[4],increased
same,T-cell mediated A549 killing,"[5]; Formula (I) 100 nM in the presence of T cells, quantitated GFP positive cells, FIG. 2A/2B",significantly increased; also recorded: promoted
same,growth of A549 cancer cells (GFP positive) in 3D spheroid culture,"[5]; Formula (I) 100 nM with HLA-matched T cells, FIG. 2A",inhibited growth
